Measurements published in patent US5124313A, “Methods of improved skin care and the treatment of dermatological conditions” (priority 1989, dated 1992).
Where two headings read alike, the source gives them in different places.

Columns and labels:
[1] = cited from earlier work; for allergic responses / skin irritation / sensitization: human, in vivo
[2] = present practices of use and concentration; cited from earlier work
[3] = human, in vivo
Experimental: Ten subjects, 4 females and 6 males, ranging in age from 18 to 27 years participated with informed consent.
The products were applied to alternate inner wrist surfaces, in areas of 2.5×1.0 cm, rubbed into the skin for aproximately 5-10 seconds, using a gloved finger as an applicator and applying equal pressure in all applications. […] Mixing, applications and assays were performed in subdued light in order to decrease photodecomposition. The application sites were loosely covered with protective aluminum foil. After 30 minutes of exposure, the surface products were removed by rinsing with alcohol followed by air-drying. A strip of 3M Tape was then applied to the application site in a slightly larger rectangle than the site and removed. This stripping process was repeated for a total of 15 times and was designed to removed the entire stratum corneum. The combined strips were eluted with methanol and the eluates were assayed for RP by HPLC, using a Lichrosorb Si 60/5 micron column, after separation and saponification according to a modified USP XXI procedure.

[4] = In vitro water/solvent partitioning (dispersion, centrifugation, HPLC of supernatant); type: physicochemical
Experimental: The method s for determining in vitro water/solvent partitioning was as follows:
Individual dispersions of the above were prepared in the following solvents:
(1) Distilled water at 23° C.
(2) Distilled water at 70° C.
The dispersions were made under nitrogen and protected from light, using high shear agitation to yield particles of less than 0.5 u in diameter. The concentrations in each case were calculated to yield 4,000 i.u. per ml. The dispersions were centrifuged until clear supernatant liquids were obtained. Aliquouts of 50 uL of the clear supernatants were injected into the HPLC columns and the resulting peaks were evaluated, using a methanol solution of retinyl palmitate as the standard.

fetuses [5] = conditions: rabbit; topical administration to the mother; cited from earlier work
[6] = topical; cited from earlier work
fetuses [7] = conditions: rat; topical administration to the mother; cited from earlier work
[8] = n-Hexane at 250° C. (so in the source), dispersion calculated to 4,000 i.u. per ml
[9] = n-Hexane, dispersion calculated to 4,000 i.u. per ml

For CC1=C(/C=C/C(C)=C/C=C/C(C)=C\C(=O)O)C(C)(C)CCC1 [Accutane®, 13-cis-Retinoic acid], the birth defects ([1]; children of women treated during pregnancy) is given as “extensive birth defects in children of women treated with the drug during pregnancy” and the “allergic responses / skin irritation / sensitization” value [1] is given as “Allergic responses have also been reported”.

For CCCCCCCCCCCCCCCC(=O)OC/C=C(C)/C=C/C=C(C)/C=C/C1=C(C)CCCC1(C)C [RP, retinyl palmitate], the “safety as cosmetic ingredient” value [2] is listed as “safe as cosmetic ingredients”, the “% Retinyl Palmitate Absorbed, average +/- Std. Deviation” value [3] is listed as 0.84 +/- 0.21% and the “solubility in n-hexane (in words)” value [4] is listed as “good solubility”. The “solubility in water (in words)” value [4] was “no solubility in water”, the “Absorption, both HPLC peaks (or absence of peak)” value (shortened to “Absorption, both HPLC peaks”) ([4]; Water at 23° C., dispersion calculated to 4,000 i.u. per ml) was “No peak” and the “Absorption, both HPLC peaks” value ([4]; Water at 70° C., dispersion calculated to 4,000 i.u. per ml) was “No Peak”. For the same compound, the “Absorption, both HPLC peaks” value [4, 8] was 0.10, the “HPLC Peak #2” value [4, 8] was 0.070 and the Absorption equivalent [4, 9] was ~4,000 i.u. The “HPLC Peak #1” value [4, 9] was 0.031 and the “partitioning / migration into water and hexane (in words)” value ([4]; water and hexane) was “no migration into water with some fractionation into hexane”.

For CC1=C(/C=C/C(C)=C/C=C/C(C)=C/C(=O)O)C(C)(C)CCC1 [Tretinoin, All-trans-retinoic acid], the fetal abnormalities (fetuses [5]) is listed as “abnormalities in rat and rabbit fetuses”, the “allergic responses / skin irritation / sensitization” value [1] is listed as “severe skin irritation, sensitization and allergic responses” and the “treatment of photoaged skin” value [6] is listed as “effective for the treatment of photoaged skin”. For the same compound, the fetal abnormalities (fetuses [7]) was “abnormalities in rat and rabbit fetuses”.

In the case of CC(C=CC1=C(C)CCCC1(C)C)=CC=CC(C)=CCO [retinol, 3,7-dimethyl-9-(2,6,6-trimethyl-1-cyclohexen-1-yl)-2,4,6,8-nonatetraen-1-ol], the “safety as cosmetic ingredient” value [2] is given as “safe as cosmetic ingredients”.
